What all share (test): NCI anticancer screen, dose series, 48 h
The subject of assay [1] is KM-20L2.
The subject of assay [2] is HOP-18.
The subject of assay [3] is LXFL 529.
Assay [4] deals with DLD-1.
Assay [5] deals with XF498.
Assay [6] relates to DMS-273.
The test system of assay [7] is DMS-114.
The test system of assay [8] is M19-MEL.
In assay [9] the test system is RXF 631.

Structures are written as SMILES.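 Grown in 96-well plates, cells were treated for 48 hours with each compound at five concentrations. Insufficient inhibition: endpoint recorded as highest concentration tested. GI50 is the concentration that inhibits growth by half.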 Active and inactive are the calls of the source. Rule as the data show it: active = GI50 up to about 1.1 µM and inactive = higher.

Turning to `C[C@@]12CCC(=O)c3coc(c31)C(=O)c1cc3c(cc12)C(=O)C=CC3=O` [HELENAQUINONE], the GI50 in assay [1] was > 86.5 µM (inactive); in assay [2], 17.3 µM (inactive); in assay [3], 17.4 µM (inactive); in assay [4], 15.4 µM (inactive); in assay [5], 18.9 µM (inactive); in assay [6] it was 15.5 µM (inactive). Also, the results for the GI50 in assay [7] and in [8] were 14 µM (inactive) and 6.05 µM (inactive), respectively.

As for `CCN(CC)c1ccc(C(=C2C=CC(=[N+](CC)CC)C=C2)c2ccccc2)cc1`, the GI50 was 0.0302 µM (active) in assay [1]; 0.0225 µM (active) in assay [3]; 0.0274 µM (active) in assay [4]; 0.0149 µM (active) in [5]; 0.0304 µM (active) in assay [6]; 0.0156 µM (active) in [7]. In addition, the GI50 in assay [8] is 0.0379 µM (active).

Take `CCO[C@@H]1C2C=CC(C2)[C@H]1[N+](=O)[O-]` (stereo not given in full): the GI50 in [1], in assay [2], in assay [3], in [4], in [5] and in [6] was > 100 µM (inactive) each time. Moreover, the GI50 in assay [7] and in [8] was > 100 µM (inactive) throughout.

`CCOC(=O)/N=c1\ss/c(=N\C(=S)N(C)C)n1-c1ccccc1`: the GI50 in assay [1] is > 10 µM (inactive); in assay [2], > 10 µM (inactive); in assay [3], 4.44 µM (inactive); in assay [4] it was > 10 µM (inactive); in assay [5] it was 28.8 µM (inactive); in assay [6], 2.15 µM (inactive). For the same compound, the GI50 in assay [7] is 0.453 µM (active); in [8] it was 0.834 µM (active).

In the case of `CCOC(=O)/C(=C/c1ccc(Cl)cc1)N(CC)CC`, the GI50 in assay [2], in [3], in assay [4], in [5] and in assay [8] was > 100 µM (inactive) in each case.

`CCCC/C=C/C=C/C=C/CCCCCCCC(=O)OCC(COC(=O)CCCCCCC/C=C/C1C=CC(CCCC)C(C(=O)O)C1C(=O)O)OC(=O)CCCCCCC/C=C/C=C/C=C/CCCC.OCCNCO` (stereo not given): the GI50 in [1] was 20.9 µM (inactive); in assay [2], 17.2 µM (inactive); in assay [3], 17.8 µM (inactive); in assay [4], 20 µM (inactive); in assay [6] it was 16.3 µM (inactive); in [7], 10.9 µM (inactive). For the same compound, the GI50 in assay [8] is 17.5 µM (inactive).

`COc1ccc2nc3ccccc3c(NCCN(C)CCCl)c2c1`: the GI50 in assay [1] was 0.438 µM (active); in assay [2], 2.06 µM (inactive); in assay [3], 0.393 µM (active); in assay [4] it was 0.524 µM (active); in assay [5] it was 0.514 µM (active); in assay [6], 0.412 µM (active). The GI50 was 0.752 µM (active) in assay [7] and 0.906 µM (active) in assay [8].

With `C=C(c1nc2ccc(Cl)cc2[nH]c1=O)C(O)c1ccc(C(O)C(=O)c2nc3ccc(Cl)cc3[nH]c2=O)cc1` (stereo not given), the GI50 is 62.4 µM (inactive) in [1]; 81.1 µM (inactive) in assay [3]; > 100 µM (inactive) in assay [4]; > 100 µM (inactive) in assay [5]; > 100 µM (inactive) in [6]; 35.4 µM (inactive) in assay [7]. The GI50 in assay [8] and in assay [9] was > 100 µM (inactive) in each case.

As for `CC1=C(/C=C/C(C)=C/C=C/C(C)=C/C=C/C=C(C)/C=C/C=C(C)/C=C/C2=C(C)C(=O)C(O)CC2(C)C)C(C)(C)CC(O)C1=O` (stereo not given), the GI50 in assay [1], in assay [2], in assay [4], in [6], in assay [7] and in [8] was > 100 µM (inactive) throughout. The GI50 in assay [9] is > 100 µM (inactive).

For the compound `O=C(CC1=Nc2nnc(-c3nnc4n3C(=O)C(CC(=O)c3cccnc3)=N4)n2C1=O)c1cccnc1`, the GI50 in [1], in assay [3], in assay [4], in [6], in assay [7] and in assay [8] was > 100 µM (inactive) each time. The GI50 in [9] is > 100 µM (inactive).

With `O=c1c2cc3ccccc3n2c(=O)c2cc3ccccc3n12`, the GI50 in assay [1], in assay [2], in assay [3], in assay [4], in [5] and in assay [6] was > 100 µM (inactive) in each case. The GI50 in assay [7] and in [8] was > 100 µM (inactive) throughout.

`c1cc(-c2cn[nH]c2)cc(-c2cn[nH]c2)c1`: the GI50 in [1] is 33 µM (inactive); in assay [4], 33.7 µM (inactive); in assay [6], 30.6 µM (inactive); in assay [7] it was 45.9 µM (inactive); in assay [8], 71.3 µM (inactive); in [9], 38 µM (inactive).

As to `CCOc1ccc(/N=C/c2ccnc3ccccc23)cc1`, the GI50 in [1] is 43.7 µM (inactive); in [2] it was > 100 µM (inactive); in [3], 16.2 µM (inactive); in assay [4] it was 4.57 µM (inactive); in [5], > 100 µM (inactive); in assay [6], 28.1 µM (inactive). Besides, the values for the GI50 in assay [7] and in assay [8] were 17.3 µM (inactive) and > 71.1 µM (inactive), respectively.

On to `O=[N+]([O-])c1cccc(C2=NN(c3ccccc3)C[N+](c3ccc(Br)cc3)=N2)c1`, for which the GI50 was > 100 µM (inactive) in assay [1]; 43.7 µM (inactive) in assay [2]; 46.8 µM (inactive) in assay [3]; 96.8 µM (inactive) in [4]; > 100 µM (inactive) in [5]; 77.4 µM (inactive) in [6]. Moreover, the GI50 in assay [8] is 70.8 µM (inactive).

Consider `O=CCCCC(Sc1ccccc1)Sc1ccccc1`, for which the GI50 was 39.5 µM (inactive) in assay [1]; 13 µM (inactive) in [3]; 15.3 µM (inactive) in [4]; 19 µM (inactive) in assay [5]; 17.3 µM (inactive) in assay [6]; 23.9 µM (inactive) in assay [7]. Besides, the GI50 is 18.1 µM (inactive) in assay [8] and 20.6 µM (inactive) in assay [9].

As for `CCC(=O)OC1CCn2c1nc1c2C(=O)C(C)=C(N2CC2)C1=O` (stereo not given), the GI50 was 0.233 µM (active) in assay [1]; 0.0439 µM (active) in assay [2]; 0.0933 µM (active) in assay [3]; 0.105 µM (active) in assay [4]; 0.0345 µM (active) in [5]; 0.045 µM (active) in assay [6]. The GI50 was 0.12 µM (active) in assay [7] and 0.146 µM (active) in assay [8].

`c1ccc2c3nc(C4CCCC4)nc-3c(NC3CCCC3)[nH]c2c1`: the GI50 is 5 µM (inactive) in assay [1]; 16 µM (inactive) in assay [2]; 8.32 µM (inactive) in assay [3]; 30 µM (inactive) in [4]; 19.6 µM (inactive) in assay [5]; 8.43 µM (inactive) in assay [6]. Also, the GI50 is 17.8 µM (inactive) in [7] and 13.2 µM (inactive) in assay [8].

For the compound `Cc1nn2c(nc1=O)sc1ccc3ccccc3c12`, the GI50 in [1], in assay [2], in assay [3], in assay [4], in assay [5] and in [6] was > 100 µM (inactive) in each case. Moreover, the GI50 in [7] and in assay [8] was > 100 µM (inactive) throughout.

Take `O=c1c2cc(Br)ccc2[nH]c(=S)n1-c1ccc(Br)cc1`: the GI50 in assay [1], in assay [2], in assay [3], in [4], in [7] and in [8] was > 100 µM (inactive) throughout.

As to `CCOC(=O)/C(C#N)=C1\N[C@H](C(=O)OCC)CO1`, the GI50 in assay [1] was > 100 µM (inactive); in assay [2] it was > 100 µM (inactive); in [3] it was > 100 µM (inactive); in [4], > 100 µM (inactive); in assay [5] it was 31.9 µM (inactive); in assay [8] it was > 100 µM (inactive). Also, the GI50 in assay [9] is > 100 µM (inactive).

In the case of `CCC(=O)Nc1nc2c(ncn2C2OC(COC(=O)CC)C(OC(=O)CC)C2OC(=O)CC)c(=O)[nH]1` (stereo not given), the GI50 in [1], in [3], in assay [6] and in assay [8] was > 100 µM (inactive) in each case.

As to `CC1(C)O[C@H]2OC3CCC(=O)CC3(O)[C@H]2O1` (stereo not given in full), the GI50 in [4] was > 100 µM (inactive); in assay [5] it was 0.507 µM (active); in assay [7], > 100 µM (inactive); in [8], > 100 µM (inactive).

Take `CS(=O)(=O)N(CCC#N)c1ccc(/C=C2\N=C(c3ccccc3Cl)OC2=O)cc1`: the GI50 in assay [1], in assay [3], in assay [4], in assay [5], in assay [6] and in assay [7] was > 100 µM (inactive) throughout. The GI50 in [8] is > 100 µM (inactive).

Turning to `Cc1cc(N(CCC#N)S(C)(=O)=O)ccc1C=O`, the GI50 in assay [1], in assay [2], in [3], in assay [4], in [6] and in assay [7] was > 100 µM (inactive) each time.

With `COc1ccc(/C=C2\SC(c3ccc(OC)cc3)N(NC(=O)Cc3ccccc3)C2=O)cc1` (stereo not given), the GI50 in [2], in assay [3], in assay [4], in assay [6], in [7] and in [8] was > 100 µM (inactive) each time.

As to `COC(=O)C(=O)C(C#N)c1ccc(CC#N)cc1` (stereo not given), the GI50 in [1], in assay [3], in assay [4], in [5], in [6] and in assay [8] was > 100 µM (inactive) in each case.
